The text below walks through data of a melting point compilation (Tetko et al.; mined from patent text by program, amines drawn as free bases though some values may be those of a salt).

Structures are written as SMILES.

In the case of `COc1ccc(N2C(=O)O[C@H](CO)[C@@H]2C)cc1`, the melting point fell in the range of 99 to 101 °C. In the case of `[N-]=[N+]=C1CCc2ccccc2C1=O` it was 50 to 52 °C; in that of `Cc1ccc(-c2c(C)c(NC(=O)CC(C)(C)C)c(C)c3c2OCC3c2ccc(C(C)C)cc2)nc1` (stereo not drawn), 228 to 229 °C; in that of `C[C@H]1[C@H](N2C(=O)c3ccccc3C2=O)C(=O)N1O` (relative stereo), 94 to 96 °C. In the case of `COC1=C(OC)C(=O)c2c(cccc2S(=O)c2ccccc2)C1=O` (stereo not drawn) it was 165 to 167 °C; in that of `CCOC(=O)c1cnn2c1nc(N1CCN(C)CC1)c1cnc3c(cnn3CC)c12`, 111 to 113 °C. In the case of `Cn1ccc2cc(NC(=O)Oc3ccccc3)ccc21` it was 103 to 107 °C; in that of `CC(=O)N1N=C(c2ccc([N+](=O)[O-])c(C)c2)c2cc3c(cc2CC1(C)C#N)OCO3` (stereo not drawn), 253 to 255 °C; in that of `CCCCCCCCCCCCCCCC/C=C\OC[C@H](O)CO`, 55 to 56 °C. For the compound `CCCCCCCCCCCCCCCCOc1cc(NS(=O)(=O)c2cc([N+](=O)[O-])ccc2OCCOC)c(O)cc1C`, the melting point lay within 85.5 to 86 °C.

`O=C(O)C1=CS[C@@H]2/C(=C\c3ccc4nc5n(c4c3)CCS5)C(=O)N12` came in with a melting point greater than 250 °C. In turn, `O=[PH](O)Cc1cccc(P(c2ccccc2)c2ccccc2)c1` showed a melting point of 173 °C. With `NC(=O)C1CCN(c2cc(-c3ccc(Cl)cc3)nc3ccc(Cl)cc23)CC1`, the melting point fell in the range of 272 to 275 °C. To `NC(=O)c1cn(C(CO)CCc2cccc3ccccc23)cn1` (stereo not drawn) belongs 138 to 140 °C. To `Cc1cc(-c2ccc(Cl)cc2)nc(-n2cnc(-c3cccc(S(N)(=O)=O)c3)c2)n1` belongs 275 °C; to `O=C(O)c1ccc(OCCCCCCc2cccc(OCc3ccccc3)c2OCc2ccccc2)c(Cl)c1`, 87 to 89 °C; to `CC(=O)Oc1ccc(-c2cc(=O)c3cc(Br)cc([N+](=O)[O-])c3o2)cc1F`, 236 to 238 °C.

`COC(=O)CCCCCc1c(OC)cc(C(C)(C)C)c(O)c1NC(=O)NNC(=O)Nc1cc(OC)cc(C(C)(C)C)c1O` displayed a melting point of 157 to 159 °C. To `N#CC1(c2nnn[nH]2)CCCC1` belongs 92 to 94 °C; to `Cc1ccc(Cc2cc3c(cc2/C=C/c2ccc(C(=O)O)cc2)C(C)(C)CCC3(C)C)cc1`, 216 to 217 °C; to `CCCCN(CCCC)S(=O)(=O)NC(=O)Nc1c(C(C)C)cccc1C(C)C`, 98 to 101 °C. To `C[C@H](O)Cn1ccc2cc(F)c(Cl)cc21` belongs 99 to 101 °C. In the case of `COC(=O)[C@H](CCC(=O)O)N1C(=O)c2ccccc2C1=O` it was 137 to 138 °C; in that of `CNc1ncnc(N)c1N`, 180 to 185 °C; in that of `Cc1ccc(S(=O)(=O)n2ccc3c(C(=O)c4ccccc4O)cccc32)cc1`, 110 °C.

`CC(C)(C)OC(=O)c1ncn2c1[C@@H]1CCCN1C(=O)c1c-2cccc1[N+](=O)[O-]`: the melting point lay within 231 to 233 °C. To `CC(C)n1nc(-c2c(-c3ccccc3)nn3ccc(Oc4ccncc4)cc23)ccc1=O` belongs 218 to 220 °C. In the case of `Cc1cc(C(F)(C(F)(F)F)C(F)(F)F)cc(C)c1NC(=O)c1cc(F)c(C#N)c(NC(=O)c2ccccc2)c1F` it was 245 to 248 °C. In the case of `CCOC(=Nc1nc(C)cc(OC)n1)NS(=O)(=O)c1ccccc1OC(F)F` it was 131 to 133 °C; in that of `Cc1cccc(C(Oc2ccc3oc(CCCO)cc3c2)c2cocn2)c1` (stereo not drawn), 101 to 102 °C.

Consider `Cc1cc(C)c(C)c(COc2cccc(-c3c(-c4ccccc4)coc3C(=O)NNC(=O)c3ccc(O)c(C#N)c3)c2)c1C`, for which the melting point fell in the range of 207 to 209 °C. To `O=C(c1ccccc1)C(F)c1ccccc1` (stereo not drawn) belongs 50 to 51 °C; to `Cc1c(NC(=O)CC(C)(C)C)cc2c(c1C)OC(C)(C)C2c1ccc(CO)cc1` (stereo not drawn), 162 to 163 °C.

As a reminder, the melting point is the temperature of the solid-liquid transition.
